Species: Rattus norvegicus
Assay: DrugMatrix - Regimen: Daily Repeat
Type: toxicity, organism-based, Sprague-Dawley
Design: regimen Daily Repeat, gender Male, age 6-8 weeks
Settings: in vivo, iv, vehicle 100 % SALINE; for ABSOLUTE MONOCYTE / ABSOLUTE SEGMENTED NEUTROPHIL / BASOPHIL / EOSINOPHIL / ERYTHROCYTE COUNT / HEMATOCRIT / HEMOGLOBIN / LEUKOCYTE COUNT / LYMPHOCYTE / MEAN CORPUSCULAR HEMOGLOBIN / MEAN CORPUSCULAR HEMOGLOBIN CONCENTRATION / MEAN CORPUSCULAR VOLUME / MONOCYTE / NEUTROPHIL / NUCLEATED RED BLOOD CELLS / PLATELET COUNT / ABSOLUTE BASOPHIL / ABSOLUTE EOSINOPHIL / ABSOLUTE LYMPHOCYTE: tissue Blood; for ALANINE AMINOTRANSFERASE / ALBUMIN / ALKALINE PHOSPHATASE / ASPARTATE AMINOTRANSFERASE / BLOOD UREA NITROGEN / CARBON DIOXIDE / CHLORIDE / CHOLESTEROL / CREATINE PHOSPHOKINASE / CREATININE / GLUCOSE / LACTATE DEHYDROGENASE / LIPASE / PHOSPHORUS / POTASSIUM / SODIUM / TOTAL BILIRUBIN / TOTAL PROTEIN / URIC ACID: tissue Plasma
[1] = 20 mg/kg, 120 h, dose level Low, time 5 day
[2] = 82 mg/kg, 72 h, dose level High, time 3 day
[3] = 82 mg/kg, 120 h, dose level High, time 5 day

NCC[C@H](O)C(=O)N[C@@H]1C[C@H](N)[C@@H](O[C@H]2O[C@H](CN)[C@@H](O)[C@H](O)[C@H]2O)[C@H](O)[C@H]1O[C@H]1O[C@H](CO)[C@@H](O)[C@H](N)[C@H]1O [AMIKACIN]
ABSOLUTE MONOCYTE [1]: 11 CELLS/uL
ABSOLUTE SEGMENTED NEUTROPHIL [1]: 480 CELLS/uL
BASOPHIL [1]: 0%
EOSINOPHIL [1]: 0%
ERYTHROCYTE COUNT [1]: 5.48 x10E6/uL
HEMATOCRIT [1]: 33%
HEMOGLOBIN [1]: 12.63 G/DL
LEUKOCYTE COUNT [1]: 3.67 x10E3/uL
LYMPHOCYTE [1]: 86.67%
MEAN CORPUSCULAR HEMOGLOBIN [1]: 23 pg
MEAN CORPUSCULAR HEMOGLOBIN CONCENTRATION [1]: 38.3 G/DL
MEAN CORPUSCULAR VOLUME [1]: 60.1 fL
MONOCYTE [1]: 0.33%
NEUTROPHIL [1]: 13%
NUCLEATED RED BLOOD CELLS [1]: 0 /100WBC
PLATELET COUNT [1]: 622.33 x10E3/uL
ALANINE AMINOTRANSFERASE [1]: 72.67 u/L
ALBUMIN [1]: 3.63 G/DL
ALKALINE PHOSPHATASE [1]: 187.33 u/L
ASPARTATE AMINOTRANSFERASE [1]: 329.33 u/L
BLOOD UREA NITROGEN [1]: 16 mg/dL
CARBON DIOXIDE [1]: 32.67 mmol/L
CHLORIDE [1]: 98.67 MEQ/L
CHOLESTEROL [1]: 81.33 mg/dL
CREATINE PHOSPHOKINASE [1]: 388 u/L
CREATININE [1]: 0.13 mg/dL
GLUCOSE [1]: 162.67 mg/dL
LACTATE DEHYDROGENASE [1]: 112 u/L
LIPASE [1]: 9.67 u/L
PHOSPHORUS [1]: 10.23 mg/dL
POTASSIUM [1]: 5.93 MEQ/L
SODIUM [1]: 142.37 MEQ/L
TOTAL BILIRUBIN [1]: 0.1 mg/dL
TOTAL PROTEIN [1]: 5.3 G/DL
URIC ACID [1]: 0.53 mg/dL
ABSOLUTE BASOPHIL [2]: 0 CELLS/uL
ABSOLUTE EOSINOPHIL [2]: 29 CELLS/uL
ABSOLUTE LYMPHOCYTE [2]: 10165.67 CELLS/uL
ABSOLUTE MONOCYTE [2]: 121.67 CELLS/uL
ABSOLUTE SEGMENTED NEUTROPHIL [2]: 950.33 CELLS/uL
BASOPHIL [2]: 0%
EOSINOPHIL [2]: 0.33%
ERYTHROCYTE COUNT [2]: 5.81 x10E6/uL
HEMATOCRIT [2]: 35.97%
HEMOGLOBIN [2]: 13.7 G/DL
LEUKOCYTE COUNT [2]: 11.27 x10E3/uL
LYMPHOCYTE [2]: 90%
MEAN CORPUSCULAR HEMOGLOBIN [2]: 23.6 pg
MEAN CORPUSCULAR HEMOGLOBIN CONCENTRATION [2]: 38.1 G/DL
MEAN CORPUSCULAR VOLUME [2]: 61.93 fL
MONOCYTE [2]: 1%
NEUTROPHIL [2]: 8.67%
NUCLEATED RED BLOOD CELLS [2]: 0.33 /100WBC
PLATELET COUNT [2]: 1125.33 x10E3/uL
ALANINE AMINOTRANSFERASE [2]: 50.67 u/L
ALBUMIN [2]: 4.17 G/DL
ALKALINE PHOSPHATASE [2]: 370.33 u/L
ASPARTATE AMINOTRANSFERASE [2]: 84 u/L
BLOOD UREA NITROGEN [2]: 14.33 mg/dL
CARBON DIOXIDE [2]: 35 mmol/L
CHLORIDE [2]: 98.67 MEQ/L
CHOLESTEROL [2]: 74.33 mg/dL
CREATINE PHOSPHOKINASE [2]: 385.33 u/L
CREATININE [2]: 0.18 mg/dL
GLUCOSE [2]: 178.33 mg/dL
LACTATE DEHYDROGENASE [2]: 142.67 u/L
LIPASE [2]: 9 u/L
PHOSPHORUS [2]: 11.27 mg/dL
POTASSIUM [2]: 6 MEQ/L
SODIUM [2]: 143.33 MEQ/L
TOTAL BILIRUBIN [2]: 0.2 mg/dL
TOTAL PROTEIN [2]: 5.97 G/DL
URIC ACID [2]: 0.7 mg/dL
ABSOLUTE BASOPHIL [3]: 0 CELLS/uL
ABSOLUTE EOSINOPHIL [3]: 0 CELLS/uL
ABSOLUTE LYMPHOCYTE [3]: 6237.33 CELLS/uL
ABSOLUTE MONOCYTE [3]: 19 CELLS/uL
ABSOLUTE SEGMENTED NEUTROPHIL [3]: 743.67 CELLS/uL
BASOPHIL [3]: 0%
EOSINOPHIL [3]: 0%
ERYTHROCYTE COUNT [3]: 5.27 x10E6/uL
HEMATOCRIT [3]: 33.87%
HEMOGLOBIN [3]: 13.13 G/DL
LEUKOCYTE COUNT [3]: 7 x10E3/uL
LYMPHOCYTE [3]: 89.33%
MEAN CORPUSCULAR HEMOGLOBIN [3]: 24.93 pg
MEAN CORPUSCULAR HEMOGLOBIN CONCENTRATION [3]: 38.8 G/DL
MEAN CORPUSCULAR VOLUME [3]: 64.2 fL
MONOCYTE [3]: 0.33%
NEUTROPHIL [3]: 10.33%
NUCLEATED RED BLOOD CELLS [3]: 0.33 /100WBC
PLATELET COUNT [3]: 1177.67 x10E3/uL
ALANINE AMINOTRANSFERASE [3]: 59.67 u/L
ALBUMIN [3]: 3.9 G/DL
ALKALINE PHOSPHATASE [3]: 382 u/L
ASPARTATE AMINOTRANSFERASE [3]: 82 u/L
BLOOD UREA NITROGEN [3]: 17.33 mg/dL
CARBON DIOXIDE [3]: 32.33 mmol/L
CHLORIDE [3]: 100 MEQ/L
CHOLESTEROL [3]: 63.67 mg/dL
CREATINE PHOSPHOKINASE [3]: 235.67 u/L
CREATININE [3]: 0.15 mg/dL
GLUCOSE [3]: 160.67 mg/dL
LACTATE DEHYDROGENASE [3]: 113.33 u/L
LIPASE [3]: 9.33 u/L
PHOSPHORUS [3]: 10.73 mg/dL
POTASSIUM [3]: 5.04 MEQ/L
SODIUM [3]: 143.97 MEQ/L
TOTAL BILIRUBIN [3]: 0.17 mg/dL
TOTAL PROTEIN [3]: 5.83 G/DL
URIC ACID [3]: 0.5 mg/dL

Source: ChEMBL document CHEMBL3885881, “DrugMatrix”
